Assay results reported in patent US9718828B2 (MERCK SHARP & DOHME CORP., priority 2011, dated 2017).
pIC50: −log10 of the molar value.

molecular target: T1, hBTK (full-length BTK, 6HIS-tag cleaved) (Homo sapiens (Human), UniProt Q06187); assay: BTK enzymatic activity, LANCE TR-FRET assay (Assay Method C); type: biochemical; conditions: LANCE TR-FRET, 50 pM hBTK, 25 μM ATP; class 100-1000 is given as ≧100 nM-<1 μM; read-out: IC50 Btk activity values - Assay Method C
T1 sequence (Q06187 whole entry): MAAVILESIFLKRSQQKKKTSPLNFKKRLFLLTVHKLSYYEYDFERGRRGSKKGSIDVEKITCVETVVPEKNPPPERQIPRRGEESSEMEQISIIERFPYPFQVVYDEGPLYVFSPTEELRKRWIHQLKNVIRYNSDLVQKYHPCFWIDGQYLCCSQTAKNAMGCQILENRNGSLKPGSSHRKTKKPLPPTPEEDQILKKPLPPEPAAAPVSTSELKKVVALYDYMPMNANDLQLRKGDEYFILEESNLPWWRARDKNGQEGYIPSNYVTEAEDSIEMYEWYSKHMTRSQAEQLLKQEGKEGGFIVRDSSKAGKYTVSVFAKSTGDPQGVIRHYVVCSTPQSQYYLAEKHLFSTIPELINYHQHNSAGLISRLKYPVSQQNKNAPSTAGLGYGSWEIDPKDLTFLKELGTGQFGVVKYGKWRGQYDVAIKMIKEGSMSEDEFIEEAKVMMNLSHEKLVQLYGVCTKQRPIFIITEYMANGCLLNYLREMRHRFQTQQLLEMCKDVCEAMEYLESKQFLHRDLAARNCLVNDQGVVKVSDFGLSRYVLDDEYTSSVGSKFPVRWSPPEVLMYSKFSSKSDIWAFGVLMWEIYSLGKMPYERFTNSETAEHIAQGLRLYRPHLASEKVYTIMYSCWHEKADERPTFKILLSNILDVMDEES

SMILES	pIC50
CCc1ccnc(NC(=O)c2ccc(-c3nc([C@@H]4CCCN(C(=O)C5(O)CC5)C4)n4ccnc(N)c34)cc2)c1 [Example 371, 4-(8-amino-3-{(3R)-1-[(1-hydroxycyclopropyl)carbonyl]piperidin-3-yl}imidazo[1,5-a]pyrazin-1-yl)-N-(4-ethylpyridin-2-yl)benzamide]	> 8.00
Nc1nccn2c([C@@H]3CCCN(C(=O)c4cnsn4)C3)nc(-c3ccc(C(=O)Nc4cc(C(F)(F)F)ccn4)cc3)c12 [Example 330, 4-{8-amino-3-[(3R)-1-(1,2,5-thiadiazol-3-ylcarbonyl)piperidin-3-yl]imidazo[1,5-a]pyrazin-1-yl}-N-[4-(trifluoromethyl)pyridin-2-yl]benzamide]	> 8.00
CC1(C(=O)N2CCC[C@@H](c3nc(-c4ccc(C(=O)Nc5ncc(C(C)(C)C)s5)cc4)c4c(N)nccn34)C2)COC1 [Example 369, 4-(8-amino-3-{(3R)-1-[(3-methyloxetan-3-yl)carbonyl]piperidin-3-yl}imidazo[1,5-a]pyrazin-1-yl)-N-(5-tert-butyl-1,3-thiazol-2-yl)benzamide]	> 8.00
Cc1cc(NC(=O)c2ccc(-c3nc([C@@H]4CCCN(C(=O)C5(C)COC5)C4)n4ccnc(N)c34)cc2)no1 [Example 353, 4-(8-amino-3-{(3R)-1-[(3-methyloxetan-3-yl)carbonyl]piperidin-3-yl}imidazo[1,5-a]pyrazin-1-yl)-N-(5-methylisoxazol-3-yl)benzamide]	6.00 to 7.00
CC1(C(=O)N2CCC[C@@H](c3nc(-c4ccc(C(=O)Nc5cscn5)cc4)c4c(N)nccn34)C2)COC1 [Example 350, 4-(8-amino-3-{(3R)-1-[(3-methyloxetan-3-yl)carbonyl]piperidin-3-yl}imidazo[1,5-a]pyrazin-1-yl)-N-1,3-thiazol-4-ylbenzamide]	7.00 to 8.00
CC1(C(=O)N2CCC[C@@H](c3nc(-c4ccc(C(=O)Nc5ncc6c(n5)CCC6)cc4)c4c(N)nccn34)C2)COC1 [Example 364, 4-(8-amino-3-{(3R)-1-[(3-methyloxetan-3-yl)carbonyl]piperidin-3-yl}imidazo[1,5-a]pyrazin-1-yl)-N-(6,7-dihydro-5H-cyclopenta[d]pyrimidin-2-yl)benzamide]	7.00 to 8.00
CN(C)CC(=O)N1CCC[C@@H](c2nc(-c3ccc(C(=O)Nc4cc(C(F)(F)F)ccn4)cc3)c3c(N)nccn23)C1 [Example 347, 4-{8-amino-3-[(3R)-1-(N,N-dimethylglycyl)piperidin-3-yl]imidazo[1,5-a]pyrazin-1-yl}-N-[4-(trifluoromethyl)pyridin-2-yl]benzamide]	> 8.00
CCOCC(=O)N1CCC[C@@H](c2nc(-c3ccc(C(=O)Nc4cc(C(F)(F)F)ccn4)cc3)c3c(N)nccn23)C1 [Example 339, 4-{8-amino-3-[(3R)-1-(ethoxyacetyl)piperidin-3-yl]imidazo[1,5-a]pyrazin-1-yl}-N-[4-(trifluoromethyl)pyridin-2-yl]benzamide]	> 8.00

The next lines start with the values.

pIC50	SMILES
> 8.00	CCN1C[C@@H](c2nc(-c3ccc(C(=O)Nc4ccccn4)cc3)c3c(N)nccn23)CC[C@@H]1C(F)(F)F [Example 408, 4-{8-amino-3-[(3S,6R)-1-ethyl-6-(trifluoromethyl)piperidin-3-yl]imidazo[1,5-a]pyrazin-1-yl}-N-pyridin-2-ylbenzamide]
> 8.00	CC1(C(=O)N2CCC[C@@](C)(c3nc(-c4ccc(C(=O)Nc5cc(C(F)(F)F)ccn5)cc4)c4c(N)nccn34)C2)COC1 [Example 438, 4-(8-amino-3-{(3R)-3-methyl-1-[(3-methyloxetan-3-yl)carbonyl]piperidin-3-yl}imidazo[1,5-a]pyrazin-1-yl)-N-[4-(trifluoromethyl)pyridin-2-yl]benzamide]
> 8.00	C[C@H]1CC[C@@H](c2nc(-c3ccc(C(=O)Nc4cc(OC5CC5)ccn4)cc3)c3c(N)nccn23)CN1C(=O)C1(C)COC1 [Example 409, 4-(8-amino-3-{(3R,6S)-6-methyl-1-[(3-methyloxetan-3-yl)carbonyl]piperidin-3-yl}imidazo[1,5-a]pyrazin-1-yl)-N-[4-(cyclopropyloxy)pyridin-2-yl]benzamide]
> 8.00	CCN1CCO[C@@H](c2nc(-c3ccc(C(=O)Nc4cc(C(F)(F)F)ccn4)cc3)c3c(N)ncc(C)n23)C1 [Example 511, 4-{8-amino-3-[(2R)-4-ethylmorpholin-2-yl]-5-methylimidazo[1,5-a]pyrazin-1-yl}-N-[4-(trifluoromethyl)pyridin-2-yl]benzamide]
> 8.00	C[C@H](O)C(=O)N1CCO[C@@H](c2nc(-c3ccc(C(=O)Nc4cc(C(F)(F)F)ccn4)cc3)c3c(N)nccn23)C1 [Example 519, 4-(8-amino-3-{(2R)-4-[(2S)-2-hydroxypropanoyl]morpholin-2-yl}imidazo[1,5-a]pyrazin-1-yl)-N-[4-(trifluoromethyl)pyridin-2-yl]benzamide]
> 8.00	Nc1ncc(Cl)n2c([C@@H]3CCCN(C=O)C3)nc(-c3ccc(C(=O)Nc4cc(C(F)(F)F)ccn4)cc3)c12 [Example 443, 4-{8-amino-5-chloro-3-[(3R)-1-formylpiperidin-3-yl]imidazo[1,5-a]pyrazin-1-yl}-N-[4-(trifluoromethyl)pyridin-2-yl]benzamide]
> 8.00	CC1(C(=O)N2CCC[C@@H](c3nc(-c4ccc(C(=O)Nc5cc(C(C)(F)F)ccn5)cc4F)c4c(N)nccn34)C2)COC1 [Example 484, 4-(8-amino-3-{(3R)-1-[(3-methyloxetan-3-yl)carbonyl]piperidin-3-yl}imidazo[1,5-a]pyrazin-1-yl)-N-[4-(1,1-difluoroethyl)pyridin-2-yl]-3-fluorobenzamide]
> 8.00	CC(=O)N1C[C@H](c2nc(-c3ccc(C(=O)Nc4cc(C(F)F)ccn4)cc3F)c3c(N)nccn23)CC[C@@H]1C [Example 435, 4-{3-[(3R,6S)-1-acetyl-6-methylpiperidin-3-yl]-8-aminoimidazo[1,5-a]pyrazin-1-yl}-N-[4-(difluoromethyl)pyridin-2-yl]-3-fluorobenzamide]
> 8.00	CC1(C(=O)N2CCC[C@@](O)(c3nc(-c4ccc(C(=O)Nc5cc(C(F)(F)F)ccn5)cc4)c4c(N)nccn34)C2)COC1 [Example 439, 4-(8-amino-3-{(3S)-3-hydroxy-1-[(3-methyloxetan-3-yl)carbonyl]piperidin-3-yl}imidazo[1,5-a]pyrazin-1-yl)-N-[4-(trifluoromethyl)pyridin-2-yl]benzamide]

molecular target: T1, hBTK (full-length BTK, 6HIS-tag cleaved); assay: BTK enzymatic activity, IMAP-FP assay (Assay Method B); type: biochemical; conditions: not given
Protocol: BTK enzymatic activity was determined in an IMAP-FP assay (Immobilized Metal ion Affinity-based fluorescence Polarization; Molecular Devices). […] Phosphorylation reactions were allowed to proceed for 120 minutes and were immediately quenched by the addition of 40 μL IMAP detection beads resuspended in IMAP progressive binding buffer (beads were diluted 1:600 in 75% and 25% progressive binding buffer A and B, respectively; Molecular Devices). Plates were read on Packard microplate reader after 60 minutes binding equilibration using Fluorescence Polarization protocol.

SMILES	pIC50
CCc1ccnc(NC(=O)c2ccc(-c3cn([C@@H]4CCCN(C(=O)C5(C)COC5)C4)c4ncnc(N)c34)cc2)c1 [Example 391, 4-(4-amino-7-{(3R)-1-[(3-methyloxetan-3-yl)carbonyl]piperidin-3-yl}-7H-pyrrolo[2,3-d]pyrimidin-5-yl)-N-(4-ethylpyridin-2-yl)benzamide]	7.00 to 8.00

same assay, conditions: IMAP-FP, 1.05 nM hBTK, 5 μM ATP; class 100-1000 is given as ≧100 nM-<1 μM; read-out: IC50 Btk activity values - Assay Method B

SMILES	pIC50
CC1(C(=O)N2C[C@H](c3nc(-c4ccc(C(=O)Nc5cc(C(F)(F)F)ccn5)cc4)c4c(N)nccn34)CC(F)(F)C2)COC1 (stereo in doubt) [Example 376, 4-(8-amino-3-{5,5-difluoro-1-[(3-methyloxetan-3-yl)carbonyl]piperidin-3-yl}imidazo[1,5-a]pyrazin-1-yl)-N-[4-(trifluoromethyl)pyridin-2-yl]benzamide]	> 8.00
COc1cc(C(=O)Nc2cc(C(F)(F)F)ccn2)ccc1-c1nc([C@@H]2CC[C@H](C)N(C(=O)C3(C)COC3)C2)n2ccnc(N)c12 [Example 401, 4-(8-amino-3-{(3R,6S)-6-methyl-1-[(3-methyloxetan-3-yl)carbonyl]piperidin-3-yl}imidazo[1,5-a]pyrazin-1-yl)-3-methoxy-N-[4-(trifluoromethyl)pyridin-2-yl]benzamide]	> 8.00
COc1ccnc(NC(=O)c2ccc(-c3nc([C@@H]4CC[C@H](C)N(C(=O)C5(C)COC5)C4)n4ccnc(N)c34)cc2)c1 [Example 403, 4-(8-amino-3-{(3R,6S)-6-methyl-1-[(3-methyloxetan-3-yl)carbonyl]piperidin-3-yl}imidazo[1,5-a]pyrazin-1-yl)-N-(4-methoxypyridin-2-yl)benzamide]	> 8.00
C[C@H]1CCN(C(=O)C2(C)COC2)C[C@@H]1c1nc(-c2ccc(C(=O)Nc3cc(C(F)(F)F)ccn3)cc2)c2c(N)nccn12 [Example 378, 4-(8-amino-3-{(3R,4S)-4-methyl-1-[(3-methyloxetan-3-yl)carbonyl]piperidin-3-yl}imidazo[1,5-a]pyrazin-1-yl)-N-[4-(trifluoromethyl)pyridin-2-yl]benzamide]	7.00 to 8.00
CC1(C(=O)N2CCC[C@@H](n3cc(-c4ccc(C(=O)Nc5cc(C#N)ccn5)cc4)c4c(N)ncnc43)C2)COC1 [Example 390, 4-(4-amino-7-{(3R)-1-[(3-methyloxetan-3-yl)carbonyl]piperidin-3-yl}-7H-pyrrolo[2,3-d]pyrimidin-5-yl)-N-(4-cyanopyridin-2-yl)benzamide]	7.00 to 8.00

More lines, now with the values ahead:

pIC50	SMILES
> 8.00	CCOc1ccnc(NC(=O)c2ccc(-c3nc([C@@H]4CC[C@H](C)N(C(=O)C5(C)COC5)C4)n4ccnc(N)c34)cc2)c1 [Example 404, 4-(8-amino-3-{(3R,6S)-6-methyl-1-[(3-methyloxetan-3-yl)carbonyl]piperidin-3-yl}imidazo[1,5-a]pyrazin-1-yl)-N-(4-ethoxypyridin-2-yl)benzamide]
7.00 to 8.00	C[C@H]1CC[C@H](c2nc(-c3ccc(C(=O)Nc4cc(C(F)(F)F)ccn4)cc3)c3c(N)nccn23)CN1C(=O)C1(C)COC1 [Example 407, 4-(8-amino-3-{(3S,6S)-6-methyl-1-[(3-methyloxetan-3-yl)carbonyl]piperidin-3-yl}imidazo[1,5-a]pyrazin-1-yl)-N-[4-(trifluoromethyl)pyridin-2-yl]benzamide]
